Test [1] addresses Dihydrofolate reductase (Staphylococcus aureus, UniProt P0A017). The test is described as follows: (§1) Inhibition Assay: Antibacterial activity as measured by the minimal inhibitory concentrations (MIC) and minimal bactericidal concentrations of compounds are well known (see., e.g., National Committee for Clinical Laboratory Standards 2000 Performance standards for antimicrobial disk susceptibility tests: approved standard, 7th ed. M2-A7, vol. 20, no. 1, Committee for Clinical Laboratory Standards, Wayne, Pa.).

Test [2] concerns the target T1, Dihydrofolate reductase (Homo sapiens, UniProt P00374).
T1 sequence (P00374 whole entry): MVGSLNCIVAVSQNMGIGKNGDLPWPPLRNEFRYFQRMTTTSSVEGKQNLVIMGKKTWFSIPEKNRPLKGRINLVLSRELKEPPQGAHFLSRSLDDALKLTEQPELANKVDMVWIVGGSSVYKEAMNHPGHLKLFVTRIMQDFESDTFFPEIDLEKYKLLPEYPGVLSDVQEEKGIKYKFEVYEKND
The description is as §1.

By Ki is commonly meant a dissociation constant, usually derived from enzyme kinetics or from competition with a known ligand. A low value points to higher affinity.

Sequence of Dihydrofolate reductase (Staphylococcus aureus, UniProt P0A017) (P0A017 whole entry): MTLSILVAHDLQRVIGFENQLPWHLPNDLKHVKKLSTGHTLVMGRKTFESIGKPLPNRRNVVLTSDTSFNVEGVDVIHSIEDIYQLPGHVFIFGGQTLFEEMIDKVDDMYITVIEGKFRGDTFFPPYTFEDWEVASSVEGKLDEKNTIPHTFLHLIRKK

As for `Cc1c(C(=O)OC(C)(C)C)nc(-c2cccs2)n1-c1ccc2c(N)nc(N)nc2c1`, the Ki stood at 0.2 nM at Dihydrofolate reductase [1] and 1910 nM at Dihydrofolate reductase [2].

The record behind these values is ChEMBL document CHEMBL3638993, “Dihydrofolate reductase inhibitors” (2014).
